Data: PMC9886975, “Ligand recognition mechanism of the human relaxin family peptide receptor 4 (RXFP4)” (Nature Communications, 2023)
Like-named read-outs stand apart in the source and are kept apart here.

Experiments:
[1] = molecular target: T1, RXFP4 T121A (Homo sapiens, UniProt Q8TDU9, T121A); assay: cAMP accumulation, RXFP4 T121A; format: cell-based; details: HEK293T
T1 construct: RXFP4(1-374)-; expressed in transfected cells; host or cells: HEK293T, transient (pCMV6)
Source text: (§1) The full-length human RXFP4 (NCBI Reference Sequence: NM_181885.3) was cloned into a modified pFastBac vector (Invitrogen) with HA signal peptide to enhance receptor expression, followed by a 10× histidine tag and BRIL insertion at the N terminus. LgBiT subunit (Promega) was fused at the C terminus of RXFP4 connected by a 15-amino acid polypeptide linker. […] The engineered human Gαi2, Gβ1, bovine Gγ2, and scFv16 were cloned into the pFastBac vector (Invitrogen), respectively. For cAMP accumulation assay, human RXFP4 and RXFP3 (NCBI Reference Sequence: NM_016568.3) were cloned into pCMV6 constructs (OriGene Technologies). The mutant receptors were modified by site-directed mutagenesis in the setting of the WT constructs, with the primers designed by QuikChange Primer Design [QuickChange Primer Design (http://agilent.com.cn)] and carried out using Phanta Max Master (Vazyme). N-terminal Flag tag was added to both WT and mutant receptors for surface expression measurement. […]
(§2) CHO-K1 (ATCC, Cat#CCL-61) cells stably expressing human RXFP4 (hRXFP4-CHO) or RXFP3 (hRXFP3-CHO) were maintained in DMEM/F12 (Gibco) supplemented with 10% (v/v) fetal bovine serum (FBS) and 2 mM L-glutamine. […] Following 24 h culturing, the transfected cells were ready for detection.
(§3) Ligands were verified for their bioactivity in the beginning in hRXFP4-CHO, which were ready for use after 24 h culturing. […] The time-resolved fluorescence resonance energy transfer (TR-FRET) signals were detected by an EnVision multilabel plate reader (PerkinElmer) with the emission window ratio of 665 nm over 620 nm under 320 nm excitation. […]
(§4) Inhibition of forskolin-induced cAMP accumulation was performed in HEK293T cells transiently transfected with WT and mutant receptors. All the mutant constructs were modified by single-point mutation in the setting of the WT receptor. cAMP accumulation data were analyzed using a three-parameter logistic equation to determine pEC50 and Emax values. Emax values for mutants are defined as the window between the maximal response and vehicle control (no ligand) and expressed as a percentage of the WT. […]

[2] = molecular target: T2, RXFP4 W97A (Homo sapiens, UniProt Q8TDU9, W97A); assay: cAMP accumulation, RXFP4 W97A; format: cell-based
T2 construct: RXFP4(1-374)-; expressed in transfected cells; host or cells: HEK293T, transient (pCMV6)
Source text: The full-length human RXFP4 (NCBI Reference Sequence: NM_181885.3) was cloned into a modified pFastBac vector (Invitrogen) with HA signal peptide to enhance receptor expression, followed by a 10× histidine tag and BRIL insertion at the N terminus. LgBiT subunit (Promega) was fused at the C terminus of RXFP4 connected by a 15-amino acid polypeptide linker. […] The engineered human Gαi2, Gβ1, bovine Gγ2, and scFv16 were cloned into the pFastBac vector (Invitrogen), respectively. For cAMP accumulation assay, human RXFP4 and RXFP3 (NCBI Reference Sequence: NM_016568.3) were cloned into pCMV6 constructs (OriGene Technologies). The mutant receptors were modified by site-directed mutagenesis in the setting of the WT constructs, with the primers designed by QuikChange Primer Design [QuickChange Primer Design (http://agilent.com.cn)] and carried out using Phanta Max Master (Vazyme). N-terminal Flag tag was added to both WT and mutant receptors for surface expression measurement. Sequences of all primers used in this study were provided in Supplementary Table 6, and all the constructs were confirmed by DNA sequencing.
CHO-K1 (ATCC, Cat#CCL-61) cells stably expressing human RXFP4 (hRXFP4-CHO) or RXFP3 (hRXFP3-CHO) were maintained in DMEM/F12 (Gibco) supplemented with 10% (v/v) fetal bovine serum (FBS) and 2 mM L-glutamine. Human embryonic kidney 293 T cells containing SV40 large T-antigen (HEK293T, ATCC, Cat#64127316) were maintained in DMEM (Gibco) supplemented with 10% (v/v) FBS, 1 mM sodium pyruvate (Gibco), 100 units/mL penicillin and 100 μg/mL streptomycin at 37 °C in 5% CO2. For cAMP assays in mutants, HEK293T cells were seeded onto 6-well cell culture plates at a density of 7 × 10^5 cells per well. After overnight incubation, cells were transfected with WT or mutant receptors using Lipofectamine 3000 transfection reagent (Invitrogen). Following 24 h culturing, the transfected cells were ready for detection.
Ligands were verified for their bioactivity in the beginning in hRXFP4-CHO, which were ready for use after 24 h culturing. For assaying mutants, HEK293T cells were used 24 h post transfection. Cells were digested with 0.02% (w/v) EDTA and seeded onto 384-well microtiter plates at a density of 8 × 10^5 cells/mL in cAMP stimulation buffer [HBSS supplemented with 5 mM HEPES, 0.1% (w/v) bovine serum albumin (BSA) and 0.5 mM 3-isobutyl-1-methylxanthine]. The cells were stimulated with different concentrations of ligands plus 1.5 μM forskolin in RXFP4 and 4 μM forskolin in RXFP3. […] The time-resolved fluorescence resonance energy transfer (TR-FRET) signals were detected by an EnVision multilabel plate reader (PerkinElmer) with the emission window ratio of 665 nm over 620 nm under 320 nm excitation. […]
as §4, with “WT. Cell surface expression was assessed by flow cytometry to detect the N-terminal Flag epitope label on the receptors and normalized to the WT receptor (shown as percentage).” for “WT.”

[3] = molecular target: T3, RXFP4 R208A (Homo sapiens, UniProt Q8TDU9, R208A); assay: cAMP accumulation, RXFP4 R208A; format: cell-based; details: HEK293T
T3 construct: RXFP4(1-374)-; expressed in transfected cells; host or cells: HEK293T, transient (pCMV6)
Source text: as §1, §2, §3, §4

[4] = molecular target: T4, RXFP4 E100A (Homo sapiens, UniProt Q8TDU9, E100A); assay: cAMP accumulation, RXFP4 E100A; format: cell-based; details: HEK293T
T4 construct: RXFP4(1-374)-; expressed in transfected cells; host or cells: HEK293T, transient (pCMV6)
Source text: as §1, §2, §3, §4

[5] = tested on: parental CHO-K1 cells; assay: cAMP accumulation, parental CHO-K1 cells; format: cell-based, Chinese hamster; details: Supplementary Fig. 2e–g
[6] = molecular target: T5, RXFP4 Q205A (Homo sapiens, UniProt Q8TDU9, Q205A); assay: cAMP accumulation, RXFP4 Q205A; format: cell-based
T5 construct: RXFP4(1-374)-; expressed in transfected cells; host or cells: HEK293T, transient (pCMV6)
Source text: (§5) The full-length human RXFP4 (NCBI Reference Sequence: NM_181885.3) was cloned into a modified pFastBac vector (Invitrogen) with HA signal peptide to enhance receptor expression, followed by a 10× histidine tag and BRIL insertion at the N terminus. LgBiT subunit (Promega) was fused at the C terminus of RXFP4 connected by a 15-amino acid polypeptide linker. […] The engineered human Gαi2, Gβ1, bovine Gγ2, and scFv16 were cloned into the pFastBac vector (Invitrogen), respectively. For cAMP accumulation assay, human RXFP4 and RXFP3 (NCBI Reference Sequence: NM_016568.3) were cloned into pCMV6 constructs (OriGene Technologies). […]
as §2, §3

[7] = molecular target: T6, RXFP4 W279A (Homo sapiens, UniProt Q8TDU9, W279A); assay: cAMP accumulation, RXFP4 W279A; format: cell-based
T6 construct: RXFP4(1-374)-; expressed in transfected cells; host or cells: HEK293T, transient (pCMV6)
Source text: as §5, §2, §3

[8] = molecular target: T7, RXFP4 Y284A (Homo sapiens, UniProt Q8TDU9, Y284A); assay: cAMP accumulation, RXFP4 Y284A; format: cell-based
T7 construct: RXFP4(1-374)-; expressed in transfected cells; host or cells: HEK293T, transient (pCMV6)
Source text: as §5, §2, §3

[9] = molecular target: T8, RXFP4 V122A (Homo sapiens, UniProt Q8TDU9, V122A); assay: cAMP accumulation, RXFP4 V122A; format: cell-based; details: HEK293T, mean ± S.E.M.
T8 construct: RXFP4(1-374)-; expressed in transfected cells; host or cells: HEK293T, transient (pCMV6)
Source text: as §5, §2, §3

[10] = molecular target: T9, RXFP3 WT (Homo sapiens, UniProt Q9NSD7); assay: cAMP accumulation, WT RXFP3 (HEK293T); format: cell-based; details: WT and all the five RXFP3 mutants
T9 construct: RXFP3(1-469)-; expressed in transfected cells; host or cells: HEK293T, transient (pCMV6)
Source text: as §5, §2, §3

[11] = molecular target: T10, RXFP4 L118S (Homo sapiens, UniProt Q8TDU9, L118S); assay: cAMP accumulation, RXFP4 L118S; format: cell-based; details: HEK293T
T10 construct: RXFP4(1-374)-; expressed in transfected cells; host or cells: HEK293T, transient (pCMV6)
Source text: as §5, §2, §3

[12] = molecular target: T11, RXFP4 L118A (Homo sapiens, UniProt Q8TDU9, L118A); assay: cAMP accumulation, RXFP4 L118A; format: cell-based; details: HEK293T
T11 construct: RXFP4(1-374)-; expressed in transfected cells; host or cells: HEK293T, transient (pCMV6)
Source text: as §5, §2, §3

[13] = molecular target: T12, RXFP4 V122S (Homo sapiens, UniProt Q8TDU9, V122S); assay: cAMP accumulation, RXFP4 V122S; format: cell-based; details: HEK293T, mean ± S.E.M.
T12 construct: RXFP4(1-374)-; expressed in transfected cells; host or cells: HEK293T, transient (pCMV6)
Source text: as §5, §2, §3

T1 sequence (Q8TDU9 whole entry T121A): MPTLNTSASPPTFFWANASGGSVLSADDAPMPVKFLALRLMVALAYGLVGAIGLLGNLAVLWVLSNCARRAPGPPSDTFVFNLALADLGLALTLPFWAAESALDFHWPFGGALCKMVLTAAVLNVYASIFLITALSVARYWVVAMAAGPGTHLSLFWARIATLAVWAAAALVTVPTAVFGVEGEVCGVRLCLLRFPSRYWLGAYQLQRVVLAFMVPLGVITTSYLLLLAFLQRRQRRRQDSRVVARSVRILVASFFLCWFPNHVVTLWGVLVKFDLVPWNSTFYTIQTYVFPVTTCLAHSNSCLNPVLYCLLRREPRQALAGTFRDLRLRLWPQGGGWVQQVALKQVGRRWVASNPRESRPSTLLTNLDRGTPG
T2 sequence (Q8TDU9 whole entry W97A): as the sequence (Q8TDU9 whole entry T121A) above, with W97A, A121T counted along it
T4 sequence (Q8TDU9 whole entry E100A): as the sequence (Q8TDU9 whole entry T121A) above, with E100A, A121T counted along it
T3 sequence (Q8TDU9 whole entry R208A): as the sequence (Q8TDU9 whole entry T121A) above, with A121T, R208A counted along it
T7 sequence (Q8TDU9 whole entry Y284A): as the sequence (Q8TDU9 whole entry T121A) above, with A121T, Y284A counted along it
T5 sequence (Q8TDU9 whole entry Q205A): as the sequence (Q8TDU9 whole entry T121A) above, with A121T, Q205A counted along it
T6 sequence (Q8TDU9 whole entry W279A): as the sequence (Q8TDU9 whole entry T121A) above, with A121T, W279A counted along it
T8 sequence (Q8TDU9 whole entry V122A): as the sequence (Q8TDU9 whole entry T121A) above, with A121T, V122A counted along it
T12 sequence (Q8TDU9 whole entry V122S): as the sequence (Q8TDU9 whole entry T121A) above, with A121T, V122S counted along it
T10 sequence (Q8TDU9 whole entry L118S): as the sequence (Q8TDU9 whole entry T121A) above, with L118S, A121T counted along it
T9 sequence (Q9NSD7 whole entry): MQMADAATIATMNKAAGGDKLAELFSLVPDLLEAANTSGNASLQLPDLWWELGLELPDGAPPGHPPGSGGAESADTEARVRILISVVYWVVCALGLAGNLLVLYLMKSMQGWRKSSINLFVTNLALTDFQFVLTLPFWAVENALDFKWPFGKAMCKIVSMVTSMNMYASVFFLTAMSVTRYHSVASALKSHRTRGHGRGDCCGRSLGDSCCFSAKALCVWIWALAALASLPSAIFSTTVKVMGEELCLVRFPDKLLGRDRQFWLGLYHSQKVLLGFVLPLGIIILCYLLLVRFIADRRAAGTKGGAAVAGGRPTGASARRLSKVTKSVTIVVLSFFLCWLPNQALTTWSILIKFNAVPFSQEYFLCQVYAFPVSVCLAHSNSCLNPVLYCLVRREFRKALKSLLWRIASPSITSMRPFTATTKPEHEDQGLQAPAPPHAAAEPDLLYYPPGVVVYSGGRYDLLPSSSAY
T11 sequence (Q8TDU9 whole entry L118A): as the sequence (Q8TDU9 whole entry T121A) above, with L118A, A121T counted along it

CCOc1cc2c(cc1OC)CCN(C(=O)N1CCOCC1)[C@H]2CCc1c[nH]c2ccc(OC)cc12 [DC591053, (S)-(7-ethoxy-6-methoxy-1-(2-(5-methoxy-1H-indol-3-yl)ethyl)−3,4-dihydroisoquinolin-2(1H)-yl)(morpholino)methanone]
decrease of potency vs WT [1]: 20.9 fold | EC50 ([1]; 1.5 μM forskolin, mean ± S.E.M., n = 3 or 4, N.A., not active): 724 nM | Emax ([1]; mean ± S.E.M.): 31.53 ± 7.09 % WT | decrease of potency vs WT ([2]; HEK293T): 1.6 fold | EC50 ([2]; HEK293T, 1.5 μM forskolin, mean ± S.E.M., n = 3, N.A., not active, read-out: pEC50 (converted)): 56.2 nM | Emax ([2]; HEK293T, mean ± S.E.M.): 108.65 ± 10.04 % WT | decrease of potency vs WT [3]: 7.6 fold | EC50 ([3]; 1.5 μM forskolin, mean ± S.E.M., n = 3, N.A., not active): 263 nM | Emax ([3]; mean ± S.E.M.): 52.09 ± 4.26 % WT | cAMP response [4]: unchanged agonism | EC50 ([4]; 1.5 μM forskolin, mean ± S.E.M., N.A., not active): 107 nM | Emax ([4]; mean ± S.E.M.): 79.27 ± 6.72 % WT | reaction with parental CHO-K1 cells [5]: neither reacted with RXFP3 nor parental CHO-K1 cells

CC[C@H](C)[C@@H]1NC(=O)[C@H](Cc2ccc(O)cc2)NC(=O)[C@H]([C@@H](C)CC)NC(=O)[C@H](C(C)C)NC(=O)[C@H]([C@@H](C)O)NC(=O)[C@H](CCCNC(=N)N)NC(=O)[C@H]([C@@H](C)CC)NC(=O)[C@H](Cc2ccc(O)cc2)NC(=O)[C@H](CCC(=O)O)NC(=O)[C@H](CC(C)C)NC(=O)CNC(=O)[C@@H](NC(=O)[C@H](CC(C)C)NC(=O)[C@H](CCCNC(=N)N)NC(=O)[C@@H](NC(=O)[C@H](CO)NC(=O)[C@H](CCC(=O)O)NC(=O)[C@@H](N)CCCCN)C(C)C)CSSC[C@@H]2NC(=O)[C@@H](NC(=O)[C@H](CC(C)C)NC(=O)[C@@H](NC(=O)[C@H](CCC(N)=O)NC(=O)[C@H](CC(C)C)NC(=O)[C@H](CC(=O)O)NC(=O)[C@@H](N)CCC(N)=O)[C@@H](C)O)CSSC[C@H](NC(=O)CNC(=O)[C@H](CC(=O)O)NC(=O)[C@H]([C@@H](C)O)NC2=O)C(=O)N[C@@H](CO)C(=O)N[C@@H](CCSC)C(=O)N[C@@H]([C@@H](C)O)C(=O)N[C@@H](CC(=O)O)C(=O)N[C@@H](CC(C)C)C(=O)N[C@@H](CO)C(=O)N[C@@H](C)C(=O)N[C@@H](CC(C)C)C(=O)N[C@H](C(=O)O)CSSC[C@@H](C(=O)N[C@@H](C)C(=O)N[C@@H](CO)C(=O)N[C@@H](CO)C(=O)N[C@@H](CCCNC(=N)N)C(=O)N[C@@H](Cc2c[nH]c3ccccc23)C(=O)O)NC1=O [INSL5, insulin-like peptide 5]
EC50 [6]: 3.98 nM | Emax ([6]; HEK293T, mean ± S.E.M.): 50.94 ± 6.54 % WT | EC50 [2]: 15.5 nM | Emax ([2]; HEK293T, mean ± S.E.M.): 61.33 ± 5.34 % WT | EC50 [7]: 1.86 nM | Emax ([7]; HEK293T, mean ± S.E.M.): 43.30 ± 3.29 % WT | EC50 [8]: 1.82 nM | Emax ([8]; HEK293T, mean ± S.E.M.): 49.25 ± 4.06 % WT | EC50 ([9]; 1.5 μM forskolin, n = 3): 3.63 nM | Emax [9]: 33.20 ± 3.27 % WT | response [10]: inactive | response [11]: inactive | response [12]: inactive | EC50 ([13]; 1.5 μM forskolin, n = 3): 1.02 nM | Emax [13]: 45.95 ± 4.97 % WT
